# Patent US10219516B2, “Molecules having pesticidal utility, and intermediates, compositions, and processes, related thereto” (priority 2015, dated 2019)
# Where two headings read alike, the source gives them in different places.
# Assays:
# [1] = test system: Beet Armyworm (Spodoptera exigua, LAPHEG); assay: Bioassay on Beet Armyworm (BAW), 128-well diet tray assay; assay type: in vivo
# In short: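 Diet tray, 8 wells/compound; 50 μg/cm^2 applied to diet surface (90:10 acetone-water), dried. 1–5 L2 larvae/well; 25° C., 14:10 L:D, 5–7 d. Read-out: % mortality, mean of 8 wells.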
# [2] = test system: Cabbage Looper (Trichoplusia ni, TRIPNI); assay: Bioassay on Cabbage Looper (CL), 128-well diet tray assay; assay type: in vivo; conditions: Trichoplusia ni
# In short: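 Diet-incorporation-free surface assay: 50 μg/cm^2 compound in acetone-water (90:10), dried on diet; 1–5 2nd-instar larvae/well; 8 wells; vented cover; 25° C., 14:10 L:D, 5–7 d; % mortality averaged over wells.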
# [3] = Species BAW (Beet Armyworm), read-out: BAW (Biological Results, rating)
# [4] = Species CL (Cabbage Looper), read-out: CL (Biological Results, rating)
# [5] = Beet Armyworm, 128-well diet tray assay, read-out: BAW rating
# [6] = Cabbage Looper, 128-well diet tray assay, read-out: CL rating
smiles,measurement,setting,value
"CSc1ccc(NC(=O)c2cc(NC(=O)[C@H]3[C@H](c4cc(Cl)cc(Cl)c4)C3(Cl)Cl)ccc2Cl)cc1 (relative stereo) [F149, trans-2-Chloro-5-(2,2-dichloro-3-(3,5-dichlorophenyl)cyclopropane-1-carboxamido)-N-(4-(methylthio)phenyl)benzamide]",pest or weed control at 50 µg/cm2,[1]; [3],50 to 100%
same,pest or weed control at 50 µg/cm2,[2]; [4],50 to 100%
"CS(=O)(=O)c1ccc(NC(=O)[C@H]2[C@H](c3cc(Cl)cc(Cl)c3)C2(Cl)Cl)cc1C(=O)Nc1ccc(F)cc1 (relative stereo) [F157, trans-5-(2,2-dichloro-3-(3,5-dichlorophenyl)cyclopropane-1-carboxamido)-N-(4-fluorophenyl)-2-(methylsulfonyl)benzamide]",pest or weed control at 50 µg/cm2,[1]; [3],50 to 100%
same,pest or weed control at 50 µg/cm2,[2]; [4],50 to 100%
"C[S+]([O-])c1ccc(NC(=O)[C@H]2[C@H](c3cc(Cl)cc(Cl)c3)C2(Cl)Cl)cc1C(=O)Nc1ccc(F)cc1 (relative stereo) [F158, trans-5-(2,2-dichloro-3-(3,5-dichlorophenyl)cyclopropane-1-carboxamido)-N-(4-fluorophenyl)-2-(methylsulfinyl)benzamide]",pest or weed control at 50 µg/cm2,[1]; [3],50 to 100%
same,pest or weed control at 50 µg/cm2,[2]; [4],50 to 100%
"C[S+]([O-])c1ccc(NC(=O)c2cc(NC(=O)[C@H]3[C@H](c4cc(Cl)cc(Cl)c4)C3(Cl)Cl)ccc2Cl)cc1 (relative stereo) [F159, trans-2-Chloro-5-(2,2-dichloro-3-(3,5-dichlorophenyl)cyclopropane-1-carboxamido)-N-(4-(methylsulfinyl)phenyl)benzamide]",pest or weed control at 50 µg/cm2,[1]; [3],50 to 100%
same,pest or weed control at 50 µg/cm2,[2]; [4],50 to 100%
"O=C(Nc1c(F)cccc1F)c1cc(NC(=O)[C@H]2[C@H](c3cc(F)cc(Cl)c3)C2(Cl)Cl)ccc1Cl (relative stereo) [F160, trans-2-Chloro-5-(2,2-dichloro-3-(3-chloro-5-fluorophenyl)cyclopropane-1-carboxamido)-N-(2,6-difluorophenyl)benzamide]",pest or weed control at 50 µg/cm2,[1]; [3],50 to 100%
same,pest or weed control at 50 µg/cm2,[2]; [4],50 to 100%
"COc1c(Cl)cc([C@H]2[C@H](C(=O)Nc3ccc(Cl)c(C(=O)Nc4ccc(NC(C)=O)cc4)c3)C2(Cl)Cl)cc1Cl (relative stereo) [F181, trans-N-(4-Acetamidophenyl)-2-chloro-5-(2,2-dichloro-3-(3,5-dichloro-4-methoxyphenyl)cyclopropane-1-carboxamido)benzamide]",pest or weed control at 50 µg/cm2,[1]; [3],50 to 100%
same,pest or weed control at 50 µg/cm2,[2]; [4],50 to 100%
"CNc1ccc(NC(=O)c2cc(NC(=O)[C@H]3[C@H](c4cc(Cl)c(OC)c(Cl)c4)C3(Cl)Cl)ccc2Cl)cc1 (relative stereo) [F182, trans-2-Chloro-5-(2,2-dichloro-3-(3,5-dichloro-4-methoxyphenyl)cyclopropane-1-carboxamido)-N-(4-(methylamino)phenyl)benzamide]",pest or weed control at 50 µg/cm2,[1]; [3],50 to 100%
same,pest or weed control at 50 µg/cm2,[2]; [4],50 to 100%
"CN(C(=O)[C@H]1[C@H](c2cc(Cl)cc(Cl)c2)C1(Cl)Cl)c1ccc(Cl)c(C(=O)Nc2ccc(F)cc2)c1 (relative stereo) [F183, trans-2-Chloro-5-(2,2-dichloro-3-(3,5-dichlorophenyl)-N-methylcyclopropane-1-carboxamido)-N-(4-fluorophenyl)benzamide]",pest or weed control at 50 µg/cm2,[1]; [3],50 to 100%
same,pest or weed control at 50 µg/cm2,[2]; [4],50 to 100%
"N#Cc1cc(F)ccc1NC(=O)c1cc(NC(=O)[C@H]2[C@H](c3cc(Cl)c(Cl)c(Cl)c3)C2(Cl)Cl)ccc1Cl (relative stereo) [F191, trans-2-Chloro-N-(2-cyano-4-fluorophenyl)-5-(2,2-dichloro-3-(3,4,5-trichlorophenyl)cyclopropane-1-carboxamido)benzamide]",pest or weed control at 50 µg/cm2,[1]; [3],50 to 100%
same,pest or weed control at 50 µg/cm2,[2]; [4],50 to 100%
"N#Cc1cc(F)ccc1NC(=O)c1cc(NC(=O)[C@H]2[C@H](c3ccc(F)c(Cl)c3)C2(Cl)Cl)ccc1Cl (relative stereo) [F192, trans-2-Chloro-N-(2-cyano-4-fluorophenyl)-5-(2,2-dichloro-3-(3-chloro-4-fluorophenyl)cyclopropane-1-carboxamido)benzamide]",pest or weed control at 50 µg/cm2,[1]; [3],50 to 100%
same,pest or weed control at 50 µg/cm2,[2]; [4],50 to 100%
"Cc1cc(N(C)C(=O)OC(C)(C)C)ccc1NC(=O)c1cc(NC(=O)[C@H]2[C@H](c3cc(Cl)cc(Cl)c3)C2(Cl)Cl)ccc1Cl (relative stereo) [F198, trans-tert-Butyl-(4-(2-chloro-5-(2,2-dichloro-3-(3,5-dichlorophenyl)cyclopropane-1-carboxamido)benzamido)-3-methylphenyl)(methyl)carbamate]",pest or weed control at 50 µg/cm2,[1]; [3],50 to 100%
same,pest or weed control at 50 µg/cm2,[2]; [4],50 to 100%
"CNc1cc(NC(=O)c2cc(NC(=O)[C@H]3[C@H](c4cc(Cl)cc(Cl)c4)C3(Cl)Cl)ccc2Cl)ccc1C (relative stereo) [F207, trans-2-Chloro-5-(2,2-dichloro-3-(3,5-dichlorophenyl)cyclopropane-1-carboxamido)-N-(4-methyl-3-(methylamino)phenyl)benzamide]",pest or weed control at 50 µg/cm2,[1]; [3],50 to 100%
same,pest or weed control at 50 µg/cm2,[2]; [4],50 to 100%
"Cc1cc(N(C)C(=O)OC(C)(C)C)ccc1NC(=O)c1cc(NC(=O)[C@H]2[C@H](c3cc(Cl)c(Cl)c(Cl)c3)C2(Cl)Cl)ccc1Cl (relative stereo) [F218, trans-tert-Butyl-(4-(2-chloro-5-(2,2-dichloro-3-(3,4,5-trichlorophenyl)cyclopropane-1-carboxamido)benzamido)-3-methylphenyl)(methyl)carbamate]",pest or weed control at 50 µg/cm2,[1]; [3],50 to 100%
same,pest or weed control at 50 µg/cm2,[2]; [4],50 to 100%
"Cc1cc(N(C)C(=O)OC(C)(C)C)ccc1N(C)C(=O)c1cc(NC(=O)[C@H]2[C@H](c3cc(Cl)cc(Cl)c3)C2(Cl)Cl)ccc1Cl (relative stereo) [F220, trans-tert-Butyl-(4-(2-chloro-5-(2,2-dichloro-3-(3,5-dichlorophenyl)cyclopropane-1-carboxamido)-N-methylbenzamido)-3-methylphenyl)(methyl)carbamate]",pest or weed control at 50 µg/cm2,[1]; [3],50 to 100%
same,pest or weed control at 50 µg/cm2,[2]; [4],50 to 100%
"CNc1ccc(N(C)C(=O)c2cc(NC(=O)[C@H]3[C@H](c4cc(Cl)cc(Cl)c4)C3(Cl)Cl)ccc2Cl)c(C)c1 (relative stereo) [F225, trans-2-Chloro-5-(2,2-dichloro-3-(3,5-dichlorophenyl)cyclopropane-1-carboxamido)-N-methyl-N-(2-methyl-4-(methylamino)phenyl)benzamide]",pest or weed control at 50 µg/cm2,[1]; [3],50 to 100%
same,pest or weed control at 50 µg/cm2,[2]; [4],50 to 100%
"CC(=O)Nc1ccc(NC(=O)c2cc(NC(=O)[C@H]3[C@H](c4cc(Cl)cc(Cl)c4)C3(Cl)Cl)c(Cl)cc2Cl)cc1 (relative stereo) [F255, trans-N-(4-Acetamidophenyl)-2,4-dichloro-5-(2,2-dichloro-3-(3,5-dichlorophenyl)cyclopropane-1-carboxamido)benzamide]",pest or weed control at 50 µg/cm2,[1]; [3],50 to 100%
same,pest or weed control at 50 µg/cm2,[2]; [4],0 to 50%
"N#Cc1ccc(NC(=O)c2cc(NC(=O)[C@H]3[C@H](c4cc(Cl)cc(Cl)c4)C3(Cl)Cl)ccc2Cl)nc1N (relative stereo) [F292, N-(6-Amino-5-cyanopyridin-2-yl)-2-chloro-5-(trans-2,2-dichloro-3-(3,5-dichlorophenyl)cyclopropane-1-carboxamido)benzamide]",pest or weed control at 50 µg/cm2,[1]; [3],50 to 100%
same,pest or weed control at 50 µg/cm2,[2]; [4],50 to 100%
"O=C(Nc1ncncc1F)c1cc(NC(=O)[C@H]2[C@H](c3cc(Cl)cc(Cl)c3)C2(Cl)Cl)ccc1Cl (relative stereo) [F318, trans-2-Chloro-5-(2,2-dichloro-3-(3,5-dichlorophenyl)cyclopropane-1-carboxamido)-N-(5-fluoropyrimidin-4-yl)benzamide]",pest or weed control at 50 µg/cm2,[1]; [3],50 to 100%
same,pest or weed control at 50 µg/cm2,[2]; [4],50 to 100%
"Cc1cc(NC(=O)OC(C)(C)C)ccc1NC(=O)c1cc(NC(=O)[C@H]2[C@H](c3cc(Cl)cc(Br)c3)C2(Cl)Cl)ccc1Cl (relative stereo) [F335, tert-Butyl (4-(5-(trans-3-(3-bromo-5-chlorophenyl)-2,2-dichlorocyclopropane-1-carboxamido)-2-chlorobenzamido)-3-methylphenyl)carbamate]",pest or weed control at 50 µg/cm2,[1]; [3],50 to 100%
same,pest or weed control at 50 µg/cm2,[2]; [4],50 to 100%
"Cc1cc(N)ccc1NC(=O)c1cc(NC(=O)[C@H]2[C@H](c3ccc(Cl)c(Br)c3)C2(Cl)Cl)ccc1Cl (relative stereo) [F336, N-(4-Amino-2-methylphenyl)-5-(trans-3-(3-bromo-4-chlorophenyl)-2,2-dichlorocyclopropane-1-carboxamido)-2-chlorobenzamide]",pest or weed control at 50 µg/cm2,[1]; [3],50 to 100%
same,pest or weed control at 50 µg/cm2,[2]; [4],50 to 100%
"Nc1c(F)ccc(NC(=O)c2cc(NC(=O)[C@H]3[C@H](c4ccc(Cl)c(Br)c4)C3(Cl)Cl)ccc2Cl)c1F (relative stereo) [F338, N-(3-Amino-2,4-difluorophenyl)-5-(trans-3-(3-bromo-4-chlorophenyl)-2,2-dichlorocyclopropane-1-carboxamido)-2-chlorobenzamide]",pest or weed control at 50 µg/cm2,[1]; [3],50 to 100%
same,pest or weed control at 50 µg/cm2,[2]; [4],50 to 100%
"Nc1ccc([C@H]2[C@H](C(=O)Nc3ccc(Cl)c(C(=O)Nc4ccc(F)cc4)c3)C2(Cl)Cl)cc1 (relative stereo) [F425, 5-(trans-3-(4-aminophenyl)-2,2-dichlorocyclopropane-1-carboxamido)-2-chloro-N-(4-fluorophenyl)benzamide]",pest or weed control at 50 µg/cm2,[1]; [5],50 to 100%
same,pest or weed control at 50 µg/cm2,[2]; [6],50 to 100%
"O=C(Nc1ccc2c(c1)C(=O)NC2=O)c1cc(NC(=O)[C@H]2[C@H](c3cc(Cl)cc(Cl)c3)C2(Cl)Cl)ccc1Cl (relative stereo) [F439, trans-2-Chloro-5-(2,2-dichloro-3-(3,5-dichlorophenyl)cyclopropane-1-carboxamido)-N-(1,3-dioxoisoindolin-5-yl)benzamide]",pest or weed control at 50 µg/cm2,[1]; [5],50 to 100%
same,pest or weed control at 50 µg/cm2,[2]; [6],50 to 100%
